Our source for the Viscosity and Index of diffusion values is patent publication EP3967293A1, “COMPOSITION BASED ON VITAMIN E FOR TOPIC USE” (Sigla S.r.l., priority 2020, dated 2022).

A short description of data set [1]: viscosity, Rheomat RM 180 rheometer. Format: physicochemical. The note with it: at 20°C; 1500 shear rate for 5 min. How it is done: The viscosity is measured using a Rheomat RM 180 rheometer. The sample analysed has a temperature between 20-25°C. The settings for the viscosity test are: bob 9, tube 1, 1500 shear rate for 5 min. (300 sec.).
Data set [2] in a line: index of diffusion (spreading value), in vivo test on the forearm. The following applies: 4 mg on the forearm; 23°C; relative humidity 60%; ten minutes after application. As to the method: The index of diffusion of a compound is defined as the area (in mm^2) of a skin surface covered by said compound in a specific period of time.
The method used to determine the index of diffusion of a liquid component is an in vivo test. This method consists in applying 4 mg of the component to be analysed on the front forearm of an individual. For each component, 4 separate applications were carried out on the same individual. The test is carried out at a temperature of 23°C and at a relative humidity of 60%. Ten minutes after application of a sample on the forearm the area of diffusion was photographed and measured.

`CCCCCCCCOCCCCCCCC` [Dicaprylyl ether] registered a Viscosity in data set [1] of 4 mPa·s. In data set [2], the Index of diffusion amounted to 1600 mm^2/10 min.
